Assay results reported in paper PMC9953043, “Licochalcone E, a β-Amyloid Aggregation Inhibitor, Regulates Microglial M1/M2 Polarization via Inhibition of CTL1-Mediated Choline Uptake” (Biomolecules, 2023).

Biological target: T1, amyloid-β 1-42 (Aβ1-42) (Homo sapiens, UniProt P05067)
T1 construct: gene APP; Aβ1-42 peptide
Assay: Thioflavin T aggregation assay with purified Aβ[…]-42 peptide
Format: biochemical

T1 sequence (P05067 672-713): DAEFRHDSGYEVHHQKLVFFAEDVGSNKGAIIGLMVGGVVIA

SMILES	IC50 [µM]
COc1c(/C=C/C(=O)c2ccc(O)c(CC=C(C)C)c2)ccc(O)c1O [Lico D, Licochalcone D]	30.4
C=C(C)[C@H](C)c1cc(/C=C/C(=O)c2ccc(O)cc2)c(OC)cc1O [Lico E, Licochalcone E]	104
